Experimental data published in patent US7524860B2, “Antibacterial agents” (Pfizer Inc., priority 2004, dated 2009).
≈ marks a conversion by molar mass, not a printed value.

tested on: Neisseria gonorrhoeae, GC525 (NG-2888); assay: in-vitro antibacterial activity, microbroth dilution MIC susceptibility testing; assay type: cell-based; design: unit: ug/mL; details: Neisseria gonorrhoeae, microbroth dilution in gonococcal broth, 20-24 hours at 35 C, lowest concentration preventing visible growth, read-out: MIC
Method: The in-vitro antibacterial activity of selected compounds was determined against a stain of Neisseria gonorrhoeae, GC525 (NG-2888), which is described by Rouquette-Loughlin et al, in Journal of Bacteriology, February 2003, p. 1101-1106, at p. 1103. In general, minimum inhibitory concentration (MIC) susceptibility testing followed procedures recommended by the National Committee for Clinical Laboratory Standards (NCCLS^1-2) or followed the descriptions described below:
Neisseria gonorrhoeae strains were grown on Chocolate Agar II plates (BBL—Becton Dickinson Microbiology Systems, Cockeysville, Md.) and incubated at 35° C. in a humidified 5% CO2 incubator (Form a Scientific, Marietta Ohio). For microbroth dilution MIC testing, N. gonorrhoeae were tested in gonococcal broth (GCB):
Gram stains were also utilized. Permanent Stock Culture Collection
Bacterial stock cultures are stored as frozen suspensions at −70 C. N. gonorrhoeae cultures are suspended in inactivated Horse Serum (Colorado Serum Company, Denver, Colo.) containing 7.5% glucose prior to snap freezing in a dry ice/ethanol bath.
Preparation of Standardized Test Inocula and Plate Inoculation
Frozen stock cultures were used as the initial source of organisms for performing microbroth dilution MIC testing. Stock cultures were passed on their respective growth medium at least one growth cycle (18-24 hours) prior to their use. Bacterial culture suspensions were prepared directly from Chocolate Agar II plates into 10 mL cation-adjusted Mueller-Hinton Broth (CAMHB, BBL, # BB215069). Before use, cultures were adjusted to an optical density value of 1.6-2 on a Perkin-Elmer Lambda EZ150 Spectrophotometer (Wellesley, Mass.) set at a wavelength of 600 nm. Random cultures were plated for validation of actual colony counts. The adjusted cultures were diluted 400-fold (0.25 mL inoculum+100 mL GCB) into gonococcal broth producing a starting inoculum of approximately 5×10^5 cfu/mL. These cultures were inoculated into test plates (100 uL/well) using a Biomek® FX workstation (Beckman Coulter Inc., Fullerton, Calif.). The inoculated plates were placed in stacks of no more than 4 and covered with an empty plate. Plates were incubated for 20-24 hours at 35 C in a humidified CO2 incubator.
Test Compound (“Drug”) Preparation
Drug stock solutions (2 mg/mL in DMSO) were prepared on the day of testing. Drugs were weight corrected for assay content where necessary.
Drug Dilution Tray Preparation
Microbroth dilution stock plates were prepared in two dilution series, 64-0.06 ug drug/mL and 1-0.001 ug drug/mL. For the high concentration series, 200 uL of stock solution (2 mg/mL) was added to duplicate rows of a 96-well plate. This was used as the first well in the dilution series. Serial two-fold decremental dilutions were made using a BioMek FX robot (Beckman Coulter Inc., Fullerton, Calif.) with 10 of the remaining 11 wells, each of which contained 100 uL of the appropriate solvent/diluent. Row 12 contained solvent/diluent only and served as the control. For tube one of the low concentration series, 200 uL of a 31.25 ug/mL stock was added to duplicate rows of a 96-well plate. Serial two-fold dilutions were made as described above.
Daughter plates were spotted (3.2 uL/well) from the stock plates listed above using the BioMek FX robot and were inoculated with organism (100 uL/well) as described previously.
After incubation, the degree of growth in each well was read visually with the aid of a Test Reading Mirror (Dynatech Lab 220-16, Dynex Technologies, Chantilly, Va.). 96-well test plates are read in a darkened room with a single light shining from above. The MIC is the lowest concentration of drug that prevents macroscopically visible growth under the conditions of the test. […] If MIC values in duplicate tests differ by 1 well (two-fold), the […] value is reported. If duplicate tests vary by 2 dilutions (four-fold), the middle value is reported.

MIC | Structure (SMILES)
2 µg/mL (≈ 6.51 µM) | CCNC(=O)Nc1nc2cc(-c3cccnc3)cc(C#N)n2n1 [Example 27, N-(5-Cyano-7-pyridin-3-yl[1,2,4]triazolo[1,5-a]pyridin-2-yl)-N′-ethylurea]
> 64 µg/mL | CCNC(=O)Nc1nc2cc(-c3cccnc3)cc(-c3nnc(CC(C)=O)o3)n2n1 [Example 28, 1-Ethyl-3-{5-[5-(2-oxo-propyl)-[1,3,4]oxadiazol-2-yl]-7-pyridin-3-yl-[1,2,4]triazolo[1,5-a]pyridin-2-yl}-urea]
1 µg/mL (≈ 2.61 µM) | CCNC(=O)Nc1nc2cc(-c3cnccc3OC)cc(C(=O)NCC)n2n1 [Example 32, 2-(3-Ethyl-ureido)-7-(4-methoxy-pyridin-3-yl)-[1,2,4]triazolo[1,5-a]pyridine-5-carboxylic acid ethyl amide]
> 64 µg/mL | CCNC(=O)Nc1nc2cc(C3=CCOCC3)cc(C(=O)NCC)n2n1 [Example 33, 7-(3,6-Dihydro-2H-pyran-4-yl)-2-(3-ethyl-ureido)-[1,2,4]triazolo[1,5-a]pyridine-5-carboxylic acid ethyl amide]
1 µg/mL (≈ 2.69 µM) | CCNC(=O)Nc1nc2cc(-c3ccc(F)nc3)cc(C(=O)NCC)n2n1 [Example 34, 2-(3-Ethyl-ureido)-7-(6-fluoro-pyridin-3-yl)-[1,2,4]triazolo[1,5-a]pyridine-5-carboxylic acid ethylamide]
8 µg/mL (≈ 21 µM) | CCNC(=O)Nc1nc2cc(-c3ccc(C)nc3C)cc(C(=O)NCC)n2n1 [Example 35, 7-(2,6-Dimethyl-pyridin-3-yl)-2-(3-ethyl-ureido)-[1,2,4]triazolo[1,5-a]pyridine-5-carboxylic acid ethyl amide]
> 64 µg/mL | CCNC(=O)Nc1nc2cc(-c3cccnc3)cc(C(=O)N(C)CCN(CC)CC)n2n1 [Example 36, 2-(3-Ethyl-ureido)-7-pyridin-3-yl-[1,2,4]triazolo[1,5-a]pyridine-5-carboxylic acid(2-diethylamino-ethyl)-methyl-amide]
32 µg/mL (≈ 75.6 µM) | CCNC(=O)Nc1nc2cc(-c3cccnc3)cc(C(=O)N[C@H]3CC[C@H](O)CC3)n2n1 [Example 39, trans-2-(3-Ethyl-ureido)-7-pyridin-3-yl-[1,2,4]triazolo[1,5-a]pyridine-5-carboxylic acid (4-hydroxy-cyclohexyl)-amide]
2 µg/mL (≈ 5.24 µM) | CCNC(=O)Nc1nc2cc(-c3cccnc3)cc(C(=O)NCC(C)C)n2n1 [Example 40, 2-(3-Ethyl-ureido)-7-pyridin-3-yl-[1,2,4]triazolo[1,5-a]pyridine-5-carboxylic acid isobutyl-amide]
16 µg/mL (≈ 35.5 µM) | CCNC(=O)Nc1nc2cc(-c3cccnc3)cc(C(=O)NC3CCN(C(C)C)CC3)n2n1 [Example 41, 2-(3-Ethyl-ureido)-7-pyridin-3-yl-[1,2,4]triazolo[1,5-a]pyridine-5-carboxylic acid (1-isopropyl-piperidin-4-yl)-amide]
8 µg/mL (≈ 18.6 µM) | CCNC(=O)Nc1nc2cc(-c3cccnc3)cc(C(=O)N[C@@H](C)c3ccccc3)n2n1 [Example 42, (S)-2-(3-Ethyl-ureido)-7-pyridin-3-yl-[1,2,4]triazolo[1,5-a]pyridine-5-carboxylic acid(1-phenyl-ethyl)-amide]
> 64 µg/mL | CCNC(=O)Nc1nc2cc(-c3cccnc3)cc(C(=O)NCC(C)(C)C)n2n1 [Example 43, 2-(3-Ethyl-ureido)-7-pyridin-3-yl-[1,2,4]triazolo[1,5-a]pyridine-5-carboxylic acid (2,2-dimethyl-propyl)-amide]
> 64 µg/mL | CCNC(=O)Nc1nc2cc(-c3cccnc3)cc(C(=O)NC3CCOC3)n2n1 (stereo not shown) [Example 45, 2-(3-Ethyl-ureido)-7-pyridin-3-yl-[1,2,4]triazolo[1,5-a]pyridine-5-carboxylic acid (tetrahydro-furan-3-yl)-amide]
1 µg/mL (≈ 2.29 µM) | CCNC(=O)Nc1nc2cc(-c3cccnc3)cc(C(=O)NCCC3CCCN3C)n2n1 (stereo not shown) [Example 46, 2-(3-Ethyl-ureido)-7-pyridin-3-yl-[1,2,4]triazolo[1,5-a]pyridine-5-carboxylic acid [2-(1-methyl-pyrrolidin-2-yl)-ethyl]-amide]
16 µg/mL (≈ 36.7 µM) | CCNC(=O)Nc1nc2cc(-c3cccnc3)cc(C(=O)NCCCN3CCCC3)n2n1 [Example 47, 2-(3-Ethyl-ureido)-7-pyridin-3-yl-[1,2,4]triazolo[1,5-a]pyridine-5-carboxylic acid (3-pyrrolidin-1-yl-propyl)-amide]
16 µg/mL (≈ 37.3 µM) | CCNC(=O)Nc1nc2cc(-c3cccnc3)cc(C(=O)N[C@H](C)c3ccccc3)n2n1 [Example 48, (R)-2-(3-Ethyl-ureido)-7-pyridin-3-yl-[1,2,4]triazolo[1,5-a]pyridine-5-carboxylic acid(1-phenyl-ethyl)-amide]
> 64 µg/mL | CCNC(=O)Nc1nc2cc(-c3cccnc3)cc(C(=O)N3CCC(N(CC)CC)C3)n2n1 (stereo not shown) [Example 49, 1-[5-(3-Diethylamino-pyrrolidine-1-carbonyl)-7-pyridin-3-yl-[1,2,4]triazolo[1,5-a]pyridin-2-yl]-3-ethyl-urea]
2 µg/mL (≈ 4.9 µM) | CCNC(=O)Nc1nc2cc(-c3cccnc3)cc(C(=O)Nc3nccs3)n2n1 [Example 50, 2-(3-Ethyl-ureido)-7-pyridin-3-yl-[1,2,4]triazolo[1,5-a]pyridine-5-carboxylic acidthiazol-2-ylamide]
64 µg/mL (≈ 147 µM) | CCNC(=O)Nc1nc2cc(-c3cccnc3)cc(C(=O)N(C)Cc3nnc(C)o3)n2n1 [Example 51, 2-(3-Ethyl-ureido)-7-pyridin-3-yl-[1,2,4]triazolo[1,5-a]pyridine-5-carboxylic acid methyl-(5-methyl-[1,3,4]oxadiazol-2-ylmethyl)-amide]
4 µg/mL (≈ 10.9 µM) | CCNC(=O)Nc1nc2cc(-c3cccc(C)c3)cc(C(=O)NCC)n2n1 [Example 52, 2-(3-Ethyl-ureido)-7-m-tolyl-[1,2,4]triazolo[1,5-a]pyridine-5-carboxylic acid ethylamide]
16 µg/mL (≈ 41.6 µM) | CCNC(=O)Nc1nc2cc(-c3ccc(F)c(C)c3)cc(C(=O)NCC)n2n1 [Example 53, 2-(3-Ethyl-ureido)-7-(4-fluoro-3-methyl-phenyl)-[1,2,4]triazolo[1,5-a]pyridine-5-carboxylic acid ethylamide]
> 64 µg/mL | CCNC(=O)Nc1nc2cc(-c3ccccc3OC)cc(C(=O)NCC)n2n1 [Example 54, 2-(3-Ethyl-ureido)-7-(2-methoxy-phenyl)-[1,2,4]triazolo[1,5-a]pyridine-5-carboxylic acid ethylamide]
2 µg/mL (≈ 5.15 µM) | CCNC(=O)Nc1nc2cc(-c3ccc(F)c(F)c3)cc(C(=O)NCC)n2n1 [Example 55, 7-(3,4-Difluoro-phenyl)-2-(3-ethyl-ureido)-[1,2,4]triazolo[1,5-a]pyridine-5-carboxylic acid ethylamide]
2 µg/mL (≈ 5.07 µM) | CCNC(=O)Nc1nc2cc(-c3ccc4c(c3)CCO4)cc(C(=O)NCC)n2n1 [Example 57, 7-(2,3-Dihydro-benzofuran-5-yl)-2-(3-ethyl-ureido)-[1,2,4]triazolo[1,5-a]pyridine-5-carboxylic acid ethylamide]
2 µg/mL (≈ 4.9 µM) | CCNC(=O)Nc1nc2cc(-c3ccc(C(C)(C)C)cc3)cc(C(=O)NCC)n2n1 [Example 58, 7-(4-tert-Butyl-phenyl)-2-(3-ethyl-ureido)-[1,2,4]triazolo[1,5-a]pyridine-5-carboxylic acid ethylamide]

same assay, conditions: microbroth dilution in gonococcal broth, 20-24 hours at 35 C, lowest concentration preventing visible growth

MIC | Structure (SMILES)
>64.0 µg/mL | CCNC(=O)Nc1nc2cc(-c3cccnc3)cc(-c3nnc(C(C)C)o3)n2n1 [Example 29]
>64.0 µg/mL | CCNC(=O)Nc1nc2cc(-c3cnc(N(C)C)nc3)cc(-c3nnc(CC(C)C)s3)n2n1 [Example 30]
8.00 µg/mL (≈ 20.9 µM) | CCNC(=O)Nc1nc2cc(-c3cccnc3OC)cc(C(=O)NCC)n2n1 [Example 31, 2-(3-Ethyl-ureido)-7-(2-methoxy-pyridi-3-yl)-[1,2,4]triazolo[1,5-a]pyridine-5-carboxylic acid ethyl amide]
